Measurements from BindingDB's records for doi:10.1021/jm960799i (Dupont Pharmaceuticals, 1997).
“And” between values parts separate entries of the source, which are not always exact repeats. Equal values may be shown once. Where a name gives a salt, the structure may show the parent alone.

The compounds below were run against Integrin alpha-IIb/beta-3 (Homo sapiens, UniProt P08514+P05106) (assay: In vitro inhibition of ADP-induced platelet aggregation in human platelet rich plasma (hPRP)).
Integrin alpha-IIb/beta-3, sequence (P05106 27-788 limits assumed): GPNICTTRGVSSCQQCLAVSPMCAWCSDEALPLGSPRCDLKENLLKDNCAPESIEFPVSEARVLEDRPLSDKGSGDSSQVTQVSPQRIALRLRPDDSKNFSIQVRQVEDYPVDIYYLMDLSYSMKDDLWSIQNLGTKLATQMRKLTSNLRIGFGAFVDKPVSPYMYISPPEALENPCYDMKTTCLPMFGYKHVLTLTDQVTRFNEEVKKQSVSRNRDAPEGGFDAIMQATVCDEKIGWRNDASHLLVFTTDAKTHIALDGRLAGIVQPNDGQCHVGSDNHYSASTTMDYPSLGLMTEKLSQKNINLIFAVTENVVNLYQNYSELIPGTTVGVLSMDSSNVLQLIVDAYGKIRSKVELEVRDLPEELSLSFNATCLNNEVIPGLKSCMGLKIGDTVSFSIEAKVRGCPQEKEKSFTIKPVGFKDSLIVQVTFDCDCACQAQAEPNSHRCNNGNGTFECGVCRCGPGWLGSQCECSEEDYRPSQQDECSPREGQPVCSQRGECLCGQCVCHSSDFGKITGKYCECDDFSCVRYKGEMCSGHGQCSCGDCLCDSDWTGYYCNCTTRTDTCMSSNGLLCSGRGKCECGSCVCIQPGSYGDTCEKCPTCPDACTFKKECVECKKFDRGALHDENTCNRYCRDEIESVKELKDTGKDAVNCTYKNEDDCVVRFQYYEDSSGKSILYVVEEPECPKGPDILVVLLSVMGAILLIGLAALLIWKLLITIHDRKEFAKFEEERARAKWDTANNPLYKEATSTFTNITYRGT
Integrin alpha-IIb/beta-3, sequence (P08514 32-887 limits assumed): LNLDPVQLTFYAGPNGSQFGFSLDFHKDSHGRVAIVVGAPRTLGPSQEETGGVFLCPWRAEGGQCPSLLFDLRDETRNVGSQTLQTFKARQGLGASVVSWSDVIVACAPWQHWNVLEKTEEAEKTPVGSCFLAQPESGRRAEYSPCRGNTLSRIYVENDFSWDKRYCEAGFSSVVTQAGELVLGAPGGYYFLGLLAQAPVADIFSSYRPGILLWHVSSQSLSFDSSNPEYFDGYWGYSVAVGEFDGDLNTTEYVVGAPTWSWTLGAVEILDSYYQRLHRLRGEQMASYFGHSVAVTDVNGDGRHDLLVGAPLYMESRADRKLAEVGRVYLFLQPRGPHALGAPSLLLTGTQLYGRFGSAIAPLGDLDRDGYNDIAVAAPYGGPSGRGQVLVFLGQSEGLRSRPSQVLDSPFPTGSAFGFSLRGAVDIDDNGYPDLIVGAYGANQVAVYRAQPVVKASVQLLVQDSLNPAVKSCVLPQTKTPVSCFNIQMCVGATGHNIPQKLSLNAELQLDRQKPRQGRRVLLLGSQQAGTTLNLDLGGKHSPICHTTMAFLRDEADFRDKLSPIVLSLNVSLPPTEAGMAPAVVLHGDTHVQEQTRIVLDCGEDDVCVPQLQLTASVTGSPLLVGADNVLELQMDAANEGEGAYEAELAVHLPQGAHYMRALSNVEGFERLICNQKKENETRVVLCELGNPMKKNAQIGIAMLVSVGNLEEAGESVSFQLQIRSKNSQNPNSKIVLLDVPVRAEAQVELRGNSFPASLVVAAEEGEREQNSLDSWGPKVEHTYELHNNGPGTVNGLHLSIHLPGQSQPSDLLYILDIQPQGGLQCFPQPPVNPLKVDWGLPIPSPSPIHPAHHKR
Integrin alpha-IIb/beta-3, sequence (P08514 891-1039 limits assumed): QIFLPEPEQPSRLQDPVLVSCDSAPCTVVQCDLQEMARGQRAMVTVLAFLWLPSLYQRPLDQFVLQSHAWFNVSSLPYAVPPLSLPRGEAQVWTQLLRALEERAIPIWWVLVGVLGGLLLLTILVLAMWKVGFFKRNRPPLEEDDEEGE

SMILES | IC50
N=C(N)c1ccc(C2=NO[C@@H](CC(=O)NCCC(=O)O)C2)cc1 | 60 nM
N=C(N)c1ccc(C2=NOC(CC(=O)N[C@@H](CC(=O)O)C(=O)N3CCc4ccccc4C3)C2)cc1 (stereo not given in full) | 170 nM
COC(=O)CC(CN(C)C)NC(=O)CC1CC(c2ccc(C(=N)N)cc2)=NO1 (stereo not given) [3-{2-[3-(4-Carbamimidoyl-phenyl)-4,5-dihydro-isoxazol-5-yl]-acetylamino}-4-dimethylamino-butyric acid methyl ester; TFA] | 2700 nM
N=C(N)c1ccc(C2=NOC(CC(=O)NC(CC(=O)O)CC(=O)O)C2)cc1 (stereo not given) [3-{2-[3-(4-Carbamimidoyl-phenyl)-4,5-dihydro-isoxazol-5-yl]-acetylamino}-pentanedioic acid; TFA] | 210 nM
CCCCOC(=O)N[C@H](CNC(=O)C[C@H]1CC(c2ccc(C(=N)N)cc2)=NO1)C(=O)O [(R)-2-Butoxycarbonylamino-3-{2-[(R)-3-(4-carbamimidoyl-phenyl)-4,5-dihydro-isoxazol-5-yl]-acetylamino}-propionic acid; hydrochloride] | 27 nM
CCCCOC(=O)N[C@H](CNC(=O)C[C@@H]1CC(c2ccc(C(=N)N)cc2)=NO1)C(=O)O [(R)-2-Butoxycarbonylamino-3-{2-[(S)-3-(4-carbamimidoyl-phenyl)-4,5-dihydro-isoxazol-5-yl]-acetylamino}-propionic acid; hydrochloride] | 100 nM
COC(=O)C[C@H](CN(C)C)NC(=O)CC1CC(c2ccc(C(=N)N)cc2)=NO1 (stereo partly drawn) [(R)-3-{2-[3-(4-Carbamimidoyl-phenyl)-4,5-dihydro-isoxazol-5-yl]-acetylamino}-4-dimethylamino-butyric acid methyl ester; TFA] | 7000 nM
N=C(N)c1ccc(C2=NOC(CC(=O)N[C@@H](CC(=O)O)Cc3ccccc3)C2)cc1 (stereo partly drawn) [(R)-3-{2-[3-(4-Carbamimidoyl-phenyl)-4,5-dihydro-isoxazol-5-yl]-acetylamino}-4-phenyl-butyric acid; TFA] | 78 nM
COC(=O)C[C@H](CN1CCCC1)NC(=O)CC1CC(c2ccc(C(=N)N)cc2)=NO1 (stereo partly drawn) [(R)-3-{2-[3-(4-Carbamimidoyl-phenyl)-4,5-dihydro-isoxazol-5-yl]-acetylamino}-4-pyrrolidin-1-yl-butyric acid methyl ester; TFA] | 3300 nM
COC(=O)C[C@@H](CC(C)C)NC(=O)CC1CC(c2ccc(C(=N)N)cc2)=NO1 (stereo partly drawn) [(R)-3-{2-[3-(4-Carbamimidoyl-phenyl)-4,5-dihydro-isoxazol-5-yl]-acetylamino}-5-methyl-hexanoic acid methyl ester; TFA] | 50 nM
N=C(N)c1ccc(C2=NOC(CC(=O)N[C@H](CCc3ccccn3)CC(=O)O)C2)cc1 (stereo partly drawn) [(R)-3-{2-[3-(4-Carbamimidoyl-phenyl)-4,5-dihydro-isoxazol-5-yl]-acetylamino}-5-pyridin-2-yl-pentanoic acid; TFA] | 180 nM
N=C(N)c1ccc(C2=NOC(CC(=O)N[C@H](CCc3cccnc3)CC(=O)O)C2)cc1 (stereo partly drawn) [(R)-3-{2-[3-(4-Carbamimidoyl-phenyl)-4,5-dihydro-isoxazol-5-yl]-acetylamino}-5-pyridin-3-yl-pentanoic acid; TFA] | 360 nM
N=C(N)c1ccc(C2=NOC(CC(=O)N[C@H](CCc3ccncc3)CC(=O)O)C2)cc1 (stereo partly drawn) [(R)-3-{2-[3-(4-Carbamimidoyl-phenyl)-4,5-dihydro-isoxazol-5-yl]-acetylamino}-5-pyridin-4-yl-pentanoic acid; TFA] | 500 nM
CC[C@H](CC(=O)O)NC(=O)C[C@H]1CC(c2ccc(C(=N)N)cc2)=NO1 [(R)-3-{2-[(R)-3-(4-Carbamimidoyl-phenyl)-4,5-dihydro-isoxazol-5-yl]-acetylamino}-pentanoic acid; TFA] | 54 nM
CCCCOC(=O)N[C@@H](CN(C)C(=O)CC1CC(c2ccc(C(=N)N)cc2)=NO1)C(=O)O (stereo partly drawn) [(S)-2-Butoxycarbonylamino-3-({2-[3-(4-carbamimidoyl-phenyl)-4,5-dihydro-isoxazol-5-yl]-acetyl}-methyl-amino)-propionic acid; TFA] | 200 nM
CCCCOC(=O)N[C@@H](CNC(=O)CC1CC(C2CCNCC2)=NO1)C(=O)O (stereo partly drawn) [(S)-2-Butoxycarbonylamino-3-[2-(3-piperidin-4-yl-4,5-dihydro-isoxazol-5-yl)-acetylamino]-propionic acid; TFA] | 6300 nM
CCCCOC(=O)N[C@@H](CNC(=O)CC1CC(CC2CCNCC2)=NO1)C(=O)O (stereo partly drawn) [(S)-2-Butoxycarbonylamino-3-[2-(3-piperidin-4-ylmethyl-4,5-dihydro-isoxazol-5-yl)-acetylamino]-propionic acid; TFA] | 10000 nM
CCCCOC(=O)N[C@@H](CNC(=O)CC1CC(CCC2CCNCC2)=NO1)C(=O)O (stereo partly drawn) [(S)-2-Butoxycarbonylamino-3-{2-[3-(2-piperidin-4-yl-ethyl)-4,5-dihydro-isoxazol-5-yl]-acetylamino}-propionic acid; TFA] | 180 nM
CCCCOC(=O)N[C@@H](CNC(=O)CC1CC(CCCC2CCNCC2)=NO1)C(=O)O (stereo partly drawn) [(S)-2-Butoxycarbonylamino-3-{2-[3-(3-piperidin-4-yl-propyl)-4,5-dihydro-isoxazol-5-yl]-acetylamino}-propionic acid; TFA] | 180 nM
CCCCOC(=O)N[C@@H](CNC(=O)CC1CC(c2ccc(C(=N)N)cc2F)=NO1)C(=O)O (stereo partly drawn) [(S)-2-Butoxycarbonylamino-3-{2-[3-(4-carbamimidoyl-2-fluoro-phenyl)-4,5-dihydro-isoxazol-5-yl]-acetylamino}-propionic acid] | 73 nM
CCCCOC(=O)N[C@@H](CNC(=O)CC1CC(c2ccc(C(=N)N)cc2)=NO1)C(=O)OC (stereo partly drawn) [(S)-2-Butoxycarbonylamino-3-{2-[3-(4-carbamimidoyl-phenyl)-4,5-dihydro-isoxazol-5-yl]-acetylamino}-propionic acid methyl ester; hydrochloride] | 30 nM
CCCCOC(=O)N[C@@H](CNC(=O)CC1CC(c2ccc(C(=N)N)cc2)=NO1)C(=O)O (stereo partly drawn) [(S)-2-Butoxycarbonylamino-3-{2-[3-(4-carbamimidoyl-phenyl)-4,5-dihydro-isoxazol-5-yl]-acetylamino}-propionic acid; TFA] | 75 nM and 42 nM
CCCCOC(=O)N[C@@H](CNC(=O)CC1CC(c2ccc(N=C(N)N)cc2)=NO1)C(=O)O (stereo partly drawn) [(S)-2-Butoxycarbonylamino-3-{2-[3-(4-guanidino-phenyl)-4,5-dihydro-isoxazol-5-yl]-acetylamino}-propionic acid] | 88 nM

Further lines, results first:

IC50 | SMILES
67 nM | N=C(N)c1ccc(C2=NOC(CC(=O)NC[C@H](NC(=O)NCc3ccccc3)C(=O)O)C2)cc1 (stereo partly drawn) [(S)-2-(3-Benzyl-ureido)-3-{2-[3-(4-carbamimidoyl-phenyl)-4,5-dihydro-isoxazol-5-yl]-acetylamino}-propionic acid; TFA]
44 nM | N=C(N)c1ccc(C2=NOC(CC(=O)NC[C@H](NC(=O)OCc3ccc(Br)cc3)C(=O)O)C2)cc1 (stereo partly drawn) [(S)-2-(4-Bromo-benzyloxycarbonylamino)-3-{2-[3-(4-carbamimidoyl-phenyl)-4,5-dihydro-isoxazol-5-yl]-acetylamino}-propionic acid; TFA]
570 nM | CN(C[C@@H](C(=O)O)N(C)C(=O)OCc1ccccc1)C(=O)CC1CC(c2ccc(C(=N)N)cc2)=NO1 (stereo partly drawn) [(S)-2-(Benzyloxycarbonyl-methyl-amino)-3-({2-[3-(4-carbamimidoyl-phenyl)-4,5-dihydro-isoxazol-5-yl]-acetyl}-methyl-amino)-propionic acid; TFA]
31 nM | CCCCS(=O)(=O)N[C@@H](CNC(=O)CC1CC(c2ccc(C(=N)N)cc2)=NO1)C(=O)O (stereo partly drawn) [(S)-2-(Butane-1-sulfonylamino)-3-{2-[3-(4-carbamimidoyl-phenyl)-4,5-dihydro-isoxazol-5-yl]-acetylamino}-propionic acid; TFA]
91 nM | N=C(N)c1ccc(C2=NOC(CC(=O)NC[C@H](N)C(=O)O)C2)cc1 (stereo partly drawn) [(S)-2-Amino-3-{2-[3-(4-carbamimidoyl-phenyl)-4,5-dihydro-isoxazol-5-yl]-acetylamino}-propionic acid; TFA]
160 nM | COC(=O)[C@H](CN(C)C(=O)CC1CC(c2ccc(C(=N)N)cc2)=NO1)NC(=O)OCc1ccccc1 (stereo partly drawn) [(S)-2-Benzyloxycarbonylamino-3-({2-[3-(4-carbamimidoyl-phenyl)-4,5-dihydro-isoxazol-5-yl]-acetyl}-methyl-amino)-propionic acid methyl ester; TFA]
210 nM | O=C(CC1CC(CCC2CCNCC2)=NO1)NC[C@H](NC(=O)OCc1ccccc1)C(=O)O (stereo partly drawn) [(S)-2-Benzyloxycarbonylamino-3-{2-[3-(2-piperidin-4-yl-ethyl)-4,5-dihydro-isoxazol-5-yl]-acetylamino}-propionic acid; TFA]
44 nM | C=CCCOC(=O)N[C@@H](CNC(=O)CC1CC(c2ccc(C(=N)N)cc2)=NO1)C(=O)O (stereo partly drawn) [(S)-2-But-3-enyloxycarbonylamino-3-{2-[3-(4-carbamimidoyl-phenyl)-4,5-dihydro-isoxazol-5-yl]-acetylamino}-propionic acid; TFA]
67 nM | N=C(N)c1ccc(C2=NOC(CC(=O)NC[C@H](NC(=O)c3ccc(-c4ccccc4)cc3)C(=O)O)C2)cc1 (stereo partly drawn) [(S)-2-[(Biphenyl-4-carbonyl)-amino]-3-{2-[3-(4-carbamimidoyl-phenyl)-4,5-dihydro-isoxazol-5-yl]-acetylamino}-propionic acid; TFA]
32 nM | N=C(N)c1ccc(C2=NOC(CC(=O)NC[C@H](NC(=O)OCc3ccccc3Cl)C(=O)O)C2)cc1 (stereo partly drawn) [(S)-3-{2-[3-(4-Carbamimidoyl-phenyl)-4,5-dihydro-isoxazol-5-yl]-acetylamino}-2-(2-chloro-benzyloxycarbonylamino)-propionic acid; TFA]
32 nM | N=C(N)c1ccc(C2=NOC(CC(=O)NC[C@H](NC(=O)OCCC3CCCC3)C(=O)O)C2)cc1 (stereo partly drawn) [(S)-3-{2-[3-(4-Carbamimidoyl-phenyl)-4,5-dihydro-isoxazol-5-yl]-acetylamino}-2-(2-cyclopentyl-ethoxycarbonylamino)-propionic acid; TFA]
36 nM | N=C(N)c1ccc(C2=NOC(CC(=O)NC[C@H](NC(=O)OCCC3CC3)C(=O)O)C2)cc1 (stereo partly drawn) [(S)-3-{2-[3-(4-Carbamimidoyl-phenyl)-4,5-dihydro-isoxazol-5-yl]-acetylamino}-2-(2-cyclopropyl-ethoxycarbonylamino)-propionic acid; TFA]
